The record followed here is patent US7816522B2, “Triazolone derivatives” (Eisai Co., Ltd., priority 2006, dated 2010).

Where a name gives a salt, the structure may show the parent alone.

The experiment has as its target T1, human clotting factor VIIa (Homo sapiens, UniProt P08709).
T1 construct: a human clotting factor VIIa (hereinafter, “Factor VIIa”) purified sample; purchased Enzyme Research Laboratories HFVIIa
Nature of the experiment: Inhibitory activity against clotting factor VIIa (chromogenic substrate Spectrozyme FVIIa, TF/Factor VIIa enzyme solution). The format is biochemical. The settings on record: human Factor VIIa 5 nmol/L with human TF 10 nmol/L, room temperature 40 minutes, 405 nm. As to the method: [Inhibitory Activity Against Clotting Factor VIIa]
Dimethylsulfoxide (DMSO) solutions were prepared with compounds of the invention at concentration of 10 mmol/L (10 mmol/L compound solutions).
One packet of tris-hydroxymethylaminomethane-preset (hereinafter referred to as “Tris preset”) (Product of Sigma Corp., Catalog No. T8293), 8.8 g of sodium chloride (NaCl) and 1 g of bovine serum albumin (hereinafter abbreviated as “BSA”) were dissolved in 1 L of water to prepare a Tris-BSA buffer (100 mmol/L Tris, 0.15 mol/L NaCl, 0.1% BSA, pH 7.4).
This Tris-BSA buffer (180 μL) was added to the aforementioned 10 mmol/L compound solution (20 μL). A 10-fold dilution series was prepared for this mixture using the aforementioned Tris-BSA buffer, and solutions with the compound at concentrations of 1.0 mmol/L, 100, 10, 1, 0.1, 0.01 and 0.001 μmol/L were prepared (1.0 mmol-0.001 μmol/L compound solutions). As a control, a solution was prepared by 10-fold dilution of DMSO with the Tris-BSA buffer (hereinafter referred to as “control 10% solution”).
After dissolving one packet of Tris preset, NaCl (8.8 g) and BSA (1 g) in water (about 900 mL), there were added 1 mol/L aqueous calcium chloride (CaCl2) (15 mL) and 1 mg/mL aqueous cephalin (30 mL), and the total volume was brought to 1 L by adding water. To this solution there was added a human tissue factor (hereinafter, “TF”) sample (product of Calbiochem, Catalog No. 612151) (450 μg) to a TF sample concentration of 10 nmol/L, and then a human clotting factor VIIa (hereinafter, “Factor VIIa”) purified sample (product of Enzyme Research Laboratories, Catalog No. HFVIIa) (250 μg) was added to a Factor VIIa purified sample concentration of 5 nmol/L, to prepare an enzyme solution (100 mmol/L Tris-HCl, 0.15 mol/L NaCl, 15 mmol/L CaCl2, 30 μg/mL cephalin, 1 mg/mL BSA, 10 nmol/L TF, 5 nmol/L Factor VIIa).
To 110 μL of this enzyme solution there was added 15 μL of each of the 1.0 mmol-0.001 μmol/L compound solutions, and then 25 μL of a 1.0 mmol/L synthetic chromogenic substrate solution (Spectrozyme FVIIa, product of American Diagnostica, Catalog No. 217L) was added and the mixture was allowed to stand at room temperature for 40 minutes. Next, the amount of 4-nitroanilide released into the solution was quantitated by spectrophotometry (405 nm).
A control measurement was conducted in the same manner, using the control 10% solution instead of the compound solution.
This measurement yielded the enzyme reaction inhibition in the presence of 100 μmol/L to 0.1 nmol/L of each compound of the invention.
The enzyme reaction inhibition at each compound concentration was subjected to non-linear regression analysis, and the IC50 value for inhibitory activity of each compound against clotting factor VIIa was calculated.

T1 sequence (P08709 213-466 limits assumed): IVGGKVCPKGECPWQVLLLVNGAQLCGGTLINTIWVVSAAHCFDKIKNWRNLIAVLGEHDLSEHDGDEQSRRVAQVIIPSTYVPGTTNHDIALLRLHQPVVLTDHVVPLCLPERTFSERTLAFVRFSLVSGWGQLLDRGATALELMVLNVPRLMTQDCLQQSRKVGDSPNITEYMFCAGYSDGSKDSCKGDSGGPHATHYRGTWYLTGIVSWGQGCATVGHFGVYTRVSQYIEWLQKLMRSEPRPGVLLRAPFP
T1 sequence (P08709 61-212 limits assumed): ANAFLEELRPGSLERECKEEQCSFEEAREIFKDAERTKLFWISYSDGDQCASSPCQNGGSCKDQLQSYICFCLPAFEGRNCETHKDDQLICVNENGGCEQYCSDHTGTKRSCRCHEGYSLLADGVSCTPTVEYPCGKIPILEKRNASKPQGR
T1 sequence (P13726 33-295 partner): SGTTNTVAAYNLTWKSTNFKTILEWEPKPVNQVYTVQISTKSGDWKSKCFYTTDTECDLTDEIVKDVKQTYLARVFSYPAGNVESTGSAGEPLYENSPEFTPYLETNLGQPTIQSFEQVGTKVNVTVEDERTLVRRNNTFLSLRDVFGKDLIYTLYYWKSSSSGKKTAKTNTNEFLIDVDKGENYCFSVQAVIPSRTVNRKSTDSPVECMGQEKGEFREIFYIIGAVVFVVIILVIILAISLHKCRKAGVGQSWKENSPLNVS

As usually defined, the IC50 is the point on the concentration scale where inhibition reaches its midpoint. `COc1cc(F)c(C(Nc2ccc(C(=N)N)cc2)c2nn(-c3ccccc3C(=O)O)c(=O)[nH]2)cc1OC` (racemic) [Example 1, (R) and (S)-2-{3-[(4-carbamimidoylphenylamino)-(2-fluoro-4,5-dimethoxyphenyl)methyl]-5-oxo-4,5-dihydro-[1,2,4]triazol-1-yl}benzoic acid acetate] registered an IC50 of 7.5 nM.
In the case of `COc1cc(OCCF)c(F)c(C(Nc2ccc(C(=N)N)cc2)c2nn(-c3ncccn3)c(=O)[nH]2)c1` (racemic) [Example 3, (R) and (S)-4-({[2-fluoro-3-(2-fluoroethoxy)-5-methoxyphenyl]-(5-oxo-1-pyrimidin-2-yl-4,5-dihydro-1H-[1,2,4]triazol-3-yl)methyl}amino)benzamidine acetate], half-maximal inhibition (IC50) was put at 4.8 nM.
The result for `COc1cc(O[C@H]2CCOC2)cc(C(Nc2ccc(C(=N)N)cc2)c2nn(-c3ncccn3)c(=O)[nH]2)c1` (mixture of isomers) [Example 4, 4-{[(R) and (S)-{3-methoxy-5-[(S)-(tetrahydrofuran-3-yl)oxy]phenyl}-(5-oxo-1-pyrimidin-2-yl-4,5-dihydro-1H-[1,2,4]triazol-3-yl)methyl]amino}benzamidine acetate] reads 3 nM; that for `COc1cc(O[C@@H]2CCOC2)cc(C(Nc2ccc(C(=N)N)cc2)c2nn(-c3ncccn3)c(=O)[nH]2)c1` (mixture of isomers) [Example 5, 4-[((R) and (S)-{3-methoxy-5-[(R)-(tetrahydrofuran-3-yl)oxy]phenyl}-(5-oxo-1-pyrimidin-2-yl-4,5-dihydro-1H-[1,2,4]triazol-3-yl)methyl)amino]benzamidine acetate], 4.9 nM; that for `COCCOc1cc(OC)cc(C(Nc2ccc(C(=N)N)cc2)c2nn(-c3ncccn3)c(=O)[nH]2)c1` (racemic) [Example 6, (R) and (S)-4-({[3-methoxy-5-(2-methoxyethoxy)phenyl]-(5-oxo-1-pyrimidin-2-yl-4,5-dihydro-1H-[1,2,4]triazol-3-yl)methyl}amino)benzamidine acetate], 10.3 nM.
In the case of `COCCOc1cc(OC)cc(C(Nc2ccc(C(=N)N)cc2)c2nn(-c3cccnn3)c(=O)[nH]2)c1` (racemic) [Example 7, (R) and (S)-4-({[3-methoxy-5-(2-methoxyethoxy)phenyl]-(5-oxo-1-pyridazin-3-yl-4,5-dihydro-1H-[1,2,4]triazol-3-yl)methyl}amino)benzamidine acetate] it was 9.9 nM; in that of `COc1cc(OCCN(C)C)cc(C(Nc2ccc(C(=N)N)cc2)c2nn(-c3ncccn3)c(=O)[nH]2)c1` (racemic) [Example 8, (R) and (S)-4-({[3-(2-dimethylaminoethoxy)-5-methoxyphenyl]-(5-oxo-1-pyrimidin-2-yl-4,5-dihydro-1H-[1,2,4]triazol-3-yl)methyl}amino)benzamidine diacetate], 22.6 nM.
Turning to `COc1cc(OC)cc(C(Nc2ccc(C(=N)N)cc2)c2nn(-c3ncccn3)c(=O)[nH]2)c1` (racemic) [Example 9, (R) and (S)-4-{[(3,5-dimethoxyphenyl)-(5-oxo-1-pyrimidin-2-yl-4,5-dihydro-1H-[1,2,4]triazol-3-yl)methyl]amino}benzamidine acetate], the IC50 turned out to be 9.8 nM.
In the case of `COCc1cc(OC)cc(C(Nc2ccc(C(=N)N)cc2)c2nn(-c3ncccn3)c(=O)[nH]2)c1` (racemic) [Example 10, (R) and (S)-4-{[(3-methoxy-5-methoxymethylphenyl)-(5-oxo-1-pyrimidin-2-yl-4,5-dihydro-1H-[1,2,4]triazol-3-yl)methyl]amino}benzamidine acetate] it was 21.1 nM; in that of `COc1cc(CO)cc(C(Nc2ccc(C(=N)N)cc2)c2nn(-c3ncccn3)c(=O)[nH]2)c1` (racemic) [Example 12, (R) and (S)-4-{[(3-hydroxymethyl-5-methoxyphenyl)-(5-oxo-1-pyrimidin-2-yl-4,5-dihydro-1H-[1,2,4]triazol-3-yl)methyl]amino}benzamidine trifluoroacetate], 33.8 nM.
In the case of `COc1cc(OCC(=O)N(C)C)c(F)c(C(Nc2ccc(C(=N)N)cc2)c2nn(-c3ncccn3)c(=O)[nH]2)c1` (racemic) [Example 15, (R) and (S)-2-{3-[(4-carbamimidoylphenylamino)-(5-oxo-1-pyrimidin-2-yl-4,5-dihydro-1H-[1,2,4]triazol-3-yl)methyl]-2-fluoro-5-methoxyphenoxy}-N,N-dimethylacetamide acetate] it was 13.4 nM.
As for `COc1cc(C(Nc2ccc(C(=N)N)cc2)c2nn(-c3ncccn3)c(=O)[nH]2)ccc1OCC#N` (racemic) [Example 16, (R) and (S)-4-{[(4-cyanomethoxy-3-methoxyphenyl)-(5-oxo-1-pyrimidin-2-yl-4,5-dihydro-1H-[1,2,4]triazol-3-yl)methyl]amino}benzamidine acetate], the IC50 is 11.5 nM.
Compound `CCOc1cc(C(Nc2ccc(C(=N)N)cc2)c2nn(-c3ncccn3)c(=O)[nH]2)ccc1OC` (racemic) [Example 17, (R) and (S)-4-{[(3-ethoxy-4-methoxyphenyl)-(5-oxo-1-pyrimidin-2-yl-4,5-dihydro-1H-[1,2,4]triazol-3-yl)methyl]amino}benzamidine acetate] registered an IC50 of 7.5 nM.
The result for `CCOc1ccc(C(Nc2ccc(C(=N)N)cc2)c2nn(-c3ncccn3)c(=O)[nH]2)cc1OC` (racemic) [Example 18, (R) and (S)-4-{[(4-ethoxy-3-methoxyphenyl)-(5-oxo-1-pyrimidin-2-yl-4,5-dihydro-1H-[1,2,4]triazol-3-yl)methyl]amino}benzamidine acetate] reads 15.5 nM; that for `COc1cc(C(Nc2ccc(C(=N)N)cc2)c2nn(-c3ncccc3N)c(=O)[nH]2)cc(C)n1` (racemic) [Example 19, (R) and (S)-4-({[1-(3-aminopyridin-2-yl)-5-oxo-4,5-dihydro-1H-[1,2,4]triazol-3-yl]-(2-methoxy-6-methylpyridin-4-yl)methyl}amino)benzamidine acetate], 12.8 nM.
In the case of `COc1cc(C(Nc2ccc(C(=N)N)cc2)c2nn(-c3ncccn3)c(=O)[nH]2)cc2c1OCCO2` (racemic) [Example 20, (R) and (S)-4-{[(8-methoxy-2,3-dihydro-benzo[1,4]dioxin-6-yl)-(5-oxo-1-pyrimidin-2-yl-4,5-dihydro-1H-[1,2,4]triazol-3-yl)methyl]amino}benzamidine acetate] it was 9.7 nM; in that of `COc1cc(C(Nc2ccc(C(=N)N)cc2)c2nn(-c3ncccn3)c(=O)[nH]2)cc2c1OCOC2` (racemic) [Example 21, (R) and (S)-4-{[(8-methoxy-4H-benzo[1,3]dioxin-6-yl)-(5-oxo-1-pyrimidin-2-yl-4,5-dihydro-1H-[1,2,4]triazol-3-yl)methyl]amino}benzamidine acetate], 10.6 nM; in that of `COCc1cc(C(Nc2ccc(C(=N)N)cc2)c2nn(-c3ncccn3)c(=O)[nH]2)cc(OC)c1OC` (racemic) [Example 22, (R) and (S)-4-{[(3,4-dimethoxy-5-methoxymethyl-phenyl)-(5-oxo-1-pyrimidin-2-yl-4,5-dihydro-1H-[1,2,4]triazol-3-yl)methyl]amino}benzamidine acetate], 8.3 nM.
In the case of `COc1cc(C(Nc2ccc(C(=N)N)cc2)c2nn(-c3ncccn3)c(=O)[nH]2)cc2c1OCCC2` (racemic) [Example 24, (R) and (S)-4-{[(8-methoxychroman-6-yl)-(5-oxo-1-pyrimidin-2-yl-4,5-dihydro-1H-[1,2,4]triazol-3-yl)methyl]amino}benzamidine acetate] it was 7.4 nM; in that of `COc1cc(C(Nc2ccc(C(=N)N)cc2)c2nn(-c3ncccn3)c(=O)[nH]2)cc(CC#N)c1OC` (racemic) [Example 26, (R) and (S)-4-{[(3-cyanomethyl-4,5-dimethoxyphenyl)-(5-oxo-1-pyrimidin-2-yl-4,5-dihydro-1H-[1,2,4]triazol-3-yl)methyl]amino}benzamidine acetate], 5.4 nM.
